{"source": "patent US20250295711A1", "about": "“FOOD SUPPLEMENT” (FONTERRA CO-OPERATIVE GROUP LIMITED, priority 2022, published 2025)", "format_in_all_cases": "in vivo, rat", "key": {"[1]": {"system": "CUMS rats", "experiment": "Open field test in CUMS (chronic unpredictable mild stress) rats", "procedure": "(§1) A series of experiments were conducted using the chronic unpredictable mild stress (CUMS) rodent model. Rats were exposed daily to any two of the following mild physiological stresses selected at random: • 12 hours of water deprivation • 12 hours of food deprivation • 8 hours of damp sawdust • 24 hours of reversed light/dark cycle • 2 minutes of tail pinching • 1 hour of 60 Hz noise • 15 minutes of cage shaking • Swimming in 4° C. water for 5-10 minutes • 2 hours of restraining.\n(§2) Six groups of rats were assessed: • 1. Control rats: rats raised normally without stress treatments and without nutritional or drug interventions. • 2. CUMS rats: rats subjected to the CUMS protocol but without nutritional or drug interventions. • 3. CUMS HN001: rats subjected to the CUMS protocol and given HN001. • 4. CUMS HN019: rats subjected to the CUMS protocol and given HN019. • 5. CUMS HN001+HN019: rats subjected to the CUMS protocol given both HN001 and HN019. • 6.\n(§3) Baseline assessments were then conducted, including blood collection. For the next 40 days, rats in groups 2-6 were exposed to CUMS treatments to induce depression symptoms associated with stress and anxiety.\n(§4) Tests were then carried out to assess rat behaviours, such as the open field test and the elevated maze test (see FIG. 2). These are standard ways to measure rat stress and anxiety traits."}, "[2]": {"system": "CUMS rats", "experiment": "Elevated-plus maze test in CUMS rats", "procedure": "as §1, §2, §3, §4"}, "[3]": {"system": "TNF-α", "experiment": "TNF-α content in serum, brain and colon of CUMS rats", "procedure": "as §1, §2, §3\n(§5) A series of blood markers were assessed."}, "[4]": {"system": "IL-6", "experiment": "IL-6 content in serum, brain and colon of CUMS rats", "procedure": "as §1, §2, §3, §5"}, "[5]": {"system": "Corticotropin Releasing Hormone (CRH)", "experiment": "Serum corticotropin releasing hormone content in CUMS rats", "settings": "after CUMS, before intervention", "procedure": "as §1, §2, §3"}, "[6]": {"system": "Adrenocorticotropic Hormone (ACTH)", "experiment": "Serum adrenocorticotropic hormone content in CUMS rats", "procedure": "as §1, §2, §3"}, "[7]": {"system": "TNF-alpha, IL-6, IL-1β and IL-18", "experiment": "Cytokines TNF-alpha, IL-6, IL-1β and IL-18 in serum, brain tissue and colon of CUMS rats", "settings": "versus CUMS", "procedure": "as §1, §2, §3, §5"}, "[8]": {"system": "brain and colon tissue", "experiment": "HE staining of brain and colon tissues of CUMS rats", "settings": "FIG. 5", "excerpt": "Brain tissues included two regions from the hippocampus (Dentate Gyrus (DG) and CA1) and a region from the cortex (P2).\nBrain and colon tissue were stained using the HE method. Brain tissue included two regions from the hippocampus (Dentate Gyrus (DG) and CA1) and a region from the cortex (P2). The results are shown in FIG. 5 and reveal that for the control group, neurons in hippocampal regions (dentate gyrus (DG) and Ca1) and the cortex (P2) were normal, orderly, tightly packed cells. The cells had expected morphology, homogeneous cytoplasmic staining, and no increased interstitial or abnormal changes.\nFor the colon tissue, control intestinal villi were arranged neatly, with normal cell morphology and no obvious damage was seen."}, "[9]": {"settings": "after CUMS, before intervention"}, "[10]": {"settings": "base line, before CUMS and before intervention"}, "[11]": {"settings": "serum, after CUMS with intervention"}, "[12]": {"settings": "serum, after CUMS, before intervention"}}, "note": "Marks after values point to notes of the source that are not given here.", "data": [{"molecule": "CNCCC(Oc1ccc(C(F)(F)F)cc1)c1ccccc1", "note": "(stereo not shown) [Flu, fluoxetine, reference compound]", "values": [{"measurement": "Total Distance Travelled in Open Field Test, After CUMS only (x ± S)", "setting": "[1]; after 40 days CUMS, before intervention", "result": "2.89 ± 2.15^a Metres"}, {"measurement": "Vertical Movement (Number of Times Standing Up) in Open Field Test, After intervention (x ± S)", "setting": "[1]; after CUMS with intervention", "result": "11.20 ± 3.49^b"}, {"measurement": "Vertical Movement (Number of Times Standing Up) in Open Field Test, After CUMS (x ± S)", "setting": "[1]; [9]", "result": "2.00 ± 1.79^a"}, {"measurement": "Total Distance Travelled in Open Field Test, Base line (x ± S)", "setting": "[1]; [10]", "result": "23.34 ± 2.98", "unit": "Metres"}, {"measurement": "Vertical Movement (Number of Times Standing Up) in Open Field Test, Base line (x ± S)", "setting": "[1]; [10]", "result": "17.20 ± 8.04"}, {"measurement": "Time in Closed Arms in Elevated Plus Maze, After intervention (x ± S)", "setting": "[2]; after CUMS with intervention", "result": "224.96 ± 18.71^b Seconds"}, {"measurement": "Total Distance Travelled in Elevated Maze Test, After intervention (x ± S)", "setting": "[2]; after CUMS with intervention", "result": "6.19 ± 1.75^b Metres"}, {"measurement": "Time in Closed Arms in Elevated Plus Maze, After CUMS (x ± S)", "setting": "[2]; [9]", "result": "292.57 ± 8.90^a Seconds"}, {"measurement": "Total Distance Travelled in Elevated Maze Test, After CUMS (x ± S)", "setting": "[2]; [9]", "result": "2.37 ± 1.12^a Metres"}, {"measurement": "Time in Closed Arms in Elevated Plus Maze, Base line (x ± S)", "setting": "[2]; [10]", "result": "240.31 ± 16.95", "unit": "s"}, {"measurement": "Total Distance Travelled in Elevated Maze Test, Base line (x ± S)", "setting": "[2]; [10]", "result": "7.44 ± 1.38", "unit": "Metres"}, {"measurement": "TNF-α Content, Brain", "setting": "[3]; brain, end of experiment", "result": "48.62 ± 7.26^b pg/ml"}, {"measurement": "TNF-α Content, Colon", "setting": "[3]; colon, end of experiment", "result": "69.09 ± 12.48^b pg/ml"}, {"measurement": "TNF-α Content, serum-after intervention", "setting": "[3]; [11]", "result": "9.83 ± 3.83^b pg/ml"}, {"measurement": "TNF-α Content, serum-after CUMS", "setting": "[3]; [12]", "result": "23.35 ± 6.46^a pg/ml"}, {"measurement": "IL-6 Content, Brain", "setting": "[4]; brain, end of experiment", "result": "19.35 ± 4.29^b pg/ml"}, {"measurement": "IL-6 Content, Colon", "setting": "[4]; colon, end of experiment", "result": "30.89 ± 7.22^b pg/ml"}, {"measurement": "IL-6 Content, serum-after intervention", "setting": "[4]; [11]", "result": "9.83 ± 3.83^b pg/ml"}, {"measurement": "IL-6 Content, serum-after CUMS", "setting": "[4]; [12]", "result": "13.35 ± 6.46^a pg/ml"}, {"measurement": "Serum Corticotropin Releasing Hormone (CRH) Content, After CUMS", "setting": "[5]", "result": "5.50 ± 2.02^a pg/ml"}, {"measurement": "Serum Adrenocorticotropic Hormone (ACTH) Content, After intervention", "setting": "[6]; after CUMS with intervention", "result": "2.90 ± 2.20^b pg/ml"}, {"measurement": "Serum Adrenocorticotropic Hormone (ACTH) Content, After CUMS", "setting": "[6]; [9]", "result": "5.58 ± 1.41^a pg/ml"}, {"measurement": "Levels of cytokines TNF-alpha, IL-6, IL-1β and IL-18", "setting": "[7]", "result": "reduced levels of cytokines"}, {"measurement": "Morphology of hippocampus (DG, CA1) and cortex (P2)", "setting": "[8]; brain", "result": "CUMS-associated damage was largely reduced"}, {"measurement": "Morphology of colon tissue (intestinal villi, mucosa)", "setting": "[8]; colon", "result": "largely reduced"}]}]}
